# Laboratory results as given in US8680076B2, “Methods of treatment, improvement and prevention using haloaryl substituted aminopurines” (Signal Pharmaceuticals, LLC, priority 2010, dated 2014).
# “Also recorded” adds a separate entry of the source.
# How the values were obtained:
# [1] = system: DBA/2J mice, bleomycin-induced skin fibrosis; assay: Bleomycin-induced dermal fibrosis mouse model (preventive treatment); format: in vivo; details: for reduction of collagen content in lesional skin (hydroxyproline assay): compared to bleomycin-treated animals
# Description: The selective JNK inhibitor Compound JNKi-1 was tested in a bleomycin-induced dermal fibrosis mouse model, which is considered to represent the early and inflammatory stages of systemic sclerosis (Akhmetshina A, Venalis P, Dees C, Busch N, Zwerina J, Schett G, Distler O, Distler J H, Treatment with imatinib prevents fibrosis in different preclinical models of systemic sclerosis and induces regression of established fibrosis, Arthritis Rheum. 2009; 60(1):219-24). […] In animal models it will similarly induce injury and fibrosis at the site of delivery.
# Male and female DBA/2J mice were used. Mice were fed a standard diet with water ad libitum. The room temperature was kept constant at 22° C. with a humidity of 60%.
# Compound JNKi-1 was dissolved in 0.5% carboxymethylcellulose (CMC)/0.25% Tween 80 in water. Bleomycin was dissolved in 0.9% sodium chloride (NaCl) at a concentration of 0.5 mg/mL in a total volume of 100 μL. The positive control compound Imatinib mesylate was dissolved in 0.9% NaCl at a concentration of 50 mg/kg/day in a total volume of 100 μL.
# Two different dose levels of the JNK-inhibitor Compound JNKi-1 (50 mg/kg and 150 mg/kg, administered twice daily) were used to analyze the anti-fibrotic activity in a mouse model of bleomycin-induced skin fibrosis. […] DBA/2J mice (n=5/sex/group) were assigned to one of five treatment groups: • Control group: 0.5% CMC/0.25% Tween 80 in water orally (PO) twice daily (BID) and subcutaneous injections of 100 μL 0.9% NaCl. • Untreated bleomycin group: intradermal injection of bleomycin and 0.5% CMC/0.25% Tween 80 in water orally BID. • 50 mg/kg Compound JNKi-1: intradermal injection of bleomycin and Compound JNKi-1 orally BID. • 150 mg/kg Compound JNKi-1: intradermal injection of bleomycin and Compound JNKi-1 orally BID. • Positive control group: intradermal injection of bleomycin and imatinib 50 mg/kg/day administered intraperitoneally (IP).
# Localized dermal fibrosis was induced by injection of bleomycin every other day for 3 weeks in defined areas of the upper back. Compound JNKi-1 or imatinib was administrated starting from the first dose of bleomycin.
# The dermal thickness was determined by staining with hematoxylin and eosin (H & E). The activated fibroblasts (myofibroblasts) at the fibrotic lesions were quantified by immunohistochemistry (IHC) for alpha smooth muscle actin (α-SMA). Collagen concentration in lesional skin was analyzed by hydroxyproline assay. Data are expressed as mean±standard error of the mean (SEM). SPSS17.0 software and the Mann-Whitney-U-test were used for statistical analyses. A p-value of less than 0.05 was considered statistically significant.
# [2] = system: Tsk-1 mice; assay: Tight skin-1 (Tsk-1) mouse model of systemic sclerosis; format: in vivo; details: for decrease of number of myofibroblasts / reduction of hypodermal thickening: 6 weeks; for reduction of hypodermal thickening: compared to untreated mice
# Description: The antifibrotic effects of the JNK inhibitor Compound JNKi-1 were tested in a murine tight skin-1 (Tsk-1) model of systemic sclerosis. In this model, a dominant mutation in the fibrillin 1 gene (Fbn1^Tsk+/−) leads to a systemic sclerosis-like disease with inflammatory infiltrates and massive fibrosis of the skin (Akhmetshina A, Venalis P, Dees C, Busch N, Zwerina J, Schett G, et al., Treatment with imatinib prevents fibrosis in different preclinical models of systemic sclerosis and induces regression of established fibrosis, Arthritis Rheum. 2009; 60(1):219-24).
# Male and female TSK-1 mice were used. Mice were fed a standard diet with water ad libitum. The room temperature was kept constant at 22° C. with a humidity of 60%.
# Compound JNKi-1 was dissolved in 0.5% carboxymethylcellulose (CMC)/0.25% Tween 80 in water. As vehicle control a solution of 0.5% CMC/0.25% Tween 80 in water was used. Imatinib mesylate was dissolved in 0.9% NaCl at a concentration of 50 mg/kg/day in a total volume of 100 μL.
# Groups of Tsk-1 mice (n=4/sex/group) were assigned to one of five treatment groups: • Untreated wildtype (Fbn1^Tsk−/−) group received 0.5% CMC/0.25% Tween 80 in water orally (PO) twice daily (BID). • Untreated Fbn1Tsk+/− mice received 0.5% CMC/0.25% Tween 80 in water orally BID. • Compound JNKi-1-treated Fbn1^Tsk+/− received 50 mg/kg orally BID. • Compound JNKi-1-treated Fbn1^Tsk+/− received 150 mg/kg orally BID. • Imatinib mesylate-treated Fbn1^Tsk+/− group received 50 mg/kg/day administered intraperitoneally (IP).
# Treatments with Compound JNKi-1 and control compound were started at Week 4. After 6 weeks of treatment, mice were sacrificed, and the antifibrotic effects from each treatment were analyzed.
# Antifibrotic effects were determined by measuring the dermal thickness and quantifying the numbers of myofibroblasts in the lesional skin. Dermal thickness was determined by measuring the distance from the epidermal/dermal border to the dermal/subdermal border in H & E-stained sections at four different sites. The number of myofibroblasts was quantified by staining for alpha smooth muscle actin (α-SMA) in paraffin-embedded sections. Data are expressed as mean±standard error of the mean (SEM). SPSS17.0 software and the Mann-Whitney-U-test were used for statistical analyses. A p-value of less than 0.05 was considered statistically significant.
compound,measurement,setting,value
"O[C@H]1CC[C@H](Nc2ncc3nc(Nc4c(F)cc(F)cc4F)n([C@H]4CCOC4)c3n2)CC1 [JNKi-1, 4-((9-((3S)-tetrahydro-3-furanyl)-8-((2,4,6-trifluorophenyl)amino)-9H-purin-2-yl)amino)-trans-cyclohexanol]",decrease of dermal thickness,"[1]; 50 mg/kg orally BID, 3 weeks bleomycin, mean±SEM",24%±5%
same,reduction of collagen content in lesional skin (hydroxyproline assay),[1]; 50 mg/kg orally BID,29%±11%
same,reduction of number of myofibroblasts (α-SMA IHC),"[1]; 50 mg/kg orally BID, mean±SEM",80%±10%
same,reduction of collagen content in lesional skin (hydroxyproline assay),[1]; 150 mg/kg orally BID,47%±9%
same,reduction of number of myofibroblasts (α-SMA IHC),"[1]; 150 mg/kg orally BID, mean±SEM",101%±9%
same,collagen content in lesional skin (in words),[1]; 50 and 150 mg/kg orally BID,reduced dose-dependently
same,dermal thickness / development of fibrosis (in words),[1]; 50 and 150 mg/kg orally BID,decreased dose-dependently; also recorded: reduced dose dependently; also recorded: significantly ameliorated; also recorded: dose-dependently inhibited dermal thickness
same,myofibroblasts in lesional skin (in words),[1]; 50 and 150 mg/kg orally BID,significantly decreased; also recorded: completely prevented
same,decrease of number of myofibroblasts,[2]; 50 mg/kg orally BID,68%±28%
same,reduction of hypodermal thickening,[2]; 50 mg/kg orally BID,67%±5%
same,decrease of number of myofibroblasts,[2]; 150 mg/kg orally BID,99%±9%
same,reduction of hypodermal thickening,[2]; 150 mg/kg orally BID,85%±7%
same,hypodermal thickening / myofibroblast counts (in words),[2]; 50 and 150 mg/kg orally BID,dose dependently reduced; also recorded: more pronounced; also recorded: dose-dependently reduce
